The source made the active and inactive calls.
Experiments:
Beta-galactosidase = Beta-galactosidase (Escherichia coli, UniProt Q8VNN2); test: PubChem AID 485352; assay type: functional
[1] = target: T1, Type-1 angiotensin II receptor (Homo sapiens, UniProt P30556); test: antagonism of angiotensin II type 1 receptor – cell-based, uHTS hits, selectivity assay for APJ receptor antagonist project, dose response (AID 463214); assay type: functional;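 also: antagonist potency against angiotensin II stimulated AT1 response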
T1 sequence (P30556 whole entry): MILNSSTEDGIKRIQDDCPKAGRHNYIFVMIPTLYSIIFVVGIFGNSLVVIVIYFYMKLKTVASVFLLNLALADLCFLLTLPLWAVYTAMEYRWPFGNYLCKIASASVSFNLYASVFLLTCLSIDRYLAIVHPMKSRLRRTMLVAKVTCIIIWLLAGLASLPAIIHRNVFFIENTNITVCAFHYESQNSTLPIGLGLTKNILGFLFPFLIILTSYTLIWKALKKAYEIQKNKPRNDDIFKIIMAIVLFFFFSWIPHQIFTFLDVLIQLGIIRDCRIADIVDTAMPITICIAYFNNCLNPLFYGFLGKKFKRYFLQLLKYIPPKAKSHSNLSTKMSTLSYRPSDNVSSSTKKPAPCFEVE

[2] = target: T2, Replicative DNA helicase DnaB (Mycobacterium tuberculosis, UniProt P9WMR3); test: DnaB intein splicing inhibitors, dose response, biochemical, cell-free fluorescence (AID 449749); assay type: functional
T2 sequence (P9WMR3 whole entry): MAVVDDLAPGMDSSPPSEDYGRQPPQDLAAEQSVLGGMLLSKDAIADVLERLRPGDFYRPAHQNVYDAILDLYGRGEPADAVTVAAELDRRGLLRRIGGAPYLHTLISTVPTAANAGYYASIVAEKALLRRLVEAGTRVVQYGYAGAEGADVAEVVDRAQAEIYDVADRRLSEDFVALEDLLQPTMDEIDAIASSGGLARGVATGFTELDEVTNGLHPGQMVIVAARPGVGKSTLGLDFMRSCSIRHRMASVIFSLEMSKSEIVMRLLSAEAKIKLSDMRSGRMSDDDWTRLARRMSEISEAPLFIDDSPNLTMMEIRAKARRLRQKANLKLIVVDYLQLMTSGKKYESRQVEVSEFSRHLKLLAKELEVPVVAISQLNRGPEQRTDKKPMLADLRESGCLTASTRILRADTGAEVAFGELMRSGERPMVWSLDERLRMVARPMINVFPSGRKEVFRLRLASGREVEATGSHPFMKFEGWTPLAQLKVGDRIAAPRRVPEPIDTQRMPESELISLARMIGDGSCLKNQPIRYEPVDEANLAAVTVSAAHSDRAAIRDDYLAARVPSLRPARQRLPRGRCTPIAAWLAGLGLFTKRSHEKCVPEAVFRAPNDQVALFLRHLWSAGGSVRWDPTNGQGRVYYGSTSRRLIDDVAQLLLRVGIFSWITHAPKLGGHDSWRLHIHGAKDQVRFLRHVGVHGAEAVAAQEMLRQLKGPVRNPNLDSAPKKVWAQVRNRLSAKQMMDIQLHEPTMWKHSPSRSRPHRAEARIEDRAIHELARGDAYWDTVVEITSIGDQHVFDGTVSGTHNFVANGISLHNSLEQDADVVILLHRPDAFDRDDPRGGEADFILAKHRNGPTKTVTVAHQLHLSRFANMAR

Protein RecA = target: T3, Protein RecA (Mycobacterium tuberculosis, UniProt P9WHJ3); test: Fluorescence Cell-Free Homogeneous Dose Retest to Identify Inhibitors of RecA-Intein Splicing Activity. [Related pubchem assays (depositor defined):AID2097, AID2223, AID489010, AID492950]; assay type: functional
T3 sequence (P9WHJ3 whole entry): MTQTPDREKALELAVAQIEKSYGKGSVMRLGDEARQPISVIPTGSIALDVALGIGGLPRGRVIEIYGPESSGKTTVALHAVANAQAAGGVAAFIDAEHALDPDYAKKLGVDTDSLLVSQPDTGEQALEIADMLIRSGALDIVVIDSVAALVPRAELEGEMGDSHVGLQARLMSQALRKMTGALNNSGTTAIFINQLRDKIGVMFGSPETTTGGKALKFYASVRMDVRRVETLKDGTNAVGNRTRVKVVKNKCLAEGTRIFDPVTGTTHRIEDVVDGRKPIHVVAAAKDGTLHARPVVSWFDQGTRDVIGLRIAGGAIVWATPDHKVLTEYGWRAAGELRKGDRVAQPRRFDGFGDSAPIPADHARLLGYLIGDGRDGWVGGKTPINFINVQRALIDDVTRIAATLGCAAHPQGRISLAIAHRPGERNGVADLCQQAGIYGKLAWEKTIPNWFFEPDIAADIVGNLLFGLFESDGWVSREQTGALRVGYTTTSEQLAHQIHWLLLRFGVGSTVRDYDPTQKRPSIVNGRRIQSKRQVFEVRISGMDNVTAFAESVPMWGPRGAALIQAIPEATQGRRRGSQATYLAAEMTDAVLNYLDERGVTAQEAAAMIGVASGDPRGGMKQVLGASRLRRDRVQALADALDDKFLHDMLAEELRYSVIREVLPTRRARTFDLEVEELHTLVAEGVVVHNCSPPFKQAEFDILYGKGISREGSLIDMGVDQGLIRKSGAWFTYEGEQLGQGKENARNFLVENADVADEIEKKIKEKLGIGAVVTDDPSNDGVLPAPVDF

[3] = target: T4, Short transient receptor potential channel 4 (Mus musculus, UniProt Q9QUQ5); test: block of DAMGO-driven TRPC4 calcium entry – cell-based, HEK293 TRPC4/mu-opioid, Fluo-4 calcium, dose response (AID 434942); assay type: functional;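 also: potency of inhibitors blocking the TRPC4 calcium response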
T4 sequence (Q9QUQ5 whole entry): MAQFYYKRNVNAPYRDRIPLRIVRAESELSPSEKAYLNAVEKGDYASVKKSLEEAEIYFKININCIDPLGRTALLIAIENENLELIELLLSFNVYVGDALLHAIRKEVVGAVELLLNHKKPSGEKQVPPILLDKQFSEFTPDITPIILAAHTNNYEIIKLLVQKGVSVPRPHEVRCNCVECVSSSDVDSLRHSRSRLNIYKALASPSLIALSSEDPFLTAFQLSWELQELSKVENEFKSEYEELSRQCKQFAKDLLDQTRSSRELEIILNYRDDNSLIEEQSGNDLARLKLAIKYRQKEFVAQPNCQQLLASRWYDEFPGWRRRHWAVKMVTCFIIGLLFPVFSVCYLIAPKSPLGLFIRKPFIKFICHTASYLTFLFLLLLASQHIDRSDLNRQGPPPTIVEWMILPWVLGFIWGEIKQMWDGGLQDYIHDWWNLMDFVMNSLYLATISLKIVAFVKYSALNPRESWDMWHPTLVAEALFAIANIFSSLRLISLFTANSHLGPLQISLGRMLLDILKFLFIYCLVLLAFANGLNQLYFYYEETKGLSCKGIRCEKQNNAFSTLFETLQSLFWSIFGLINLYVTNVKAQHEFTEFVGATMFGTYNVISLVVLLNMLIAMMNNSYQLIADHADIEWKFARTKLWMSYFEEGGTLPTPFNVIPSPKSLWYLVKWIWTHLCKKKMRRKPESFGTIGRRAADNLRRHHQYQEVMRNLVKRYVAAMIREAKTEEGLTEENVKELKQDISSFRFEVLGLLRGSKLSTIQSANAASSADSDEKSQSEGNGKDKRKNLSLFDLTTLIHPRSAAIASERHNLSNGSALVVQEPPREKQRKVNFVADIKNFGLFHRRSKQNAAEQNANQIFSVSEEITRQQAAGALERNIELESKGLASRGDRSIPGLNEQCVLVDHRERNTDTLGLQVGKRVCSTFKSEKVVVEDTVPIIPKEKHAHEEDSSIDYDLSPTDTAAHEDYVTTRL

[4] = luciferase reporter signal suppression in cells – H4 neuroglioma cells, luminescence, dose response (AID 1990); assay type: functional, cell-based
[5] = Luminescence Cell-Based Dose Response HTS to Identify Inhibitors of 5'UTR Stem-Loop Driven Prion Protein mRNA Translation in H4 Neuroglioblastoma Cells. [Related pubchem assays: 1827 (Project Summary), 1813 (Primary HTS)]; assay type: functional
[6] = alpha-synuclein stem-loop luciferase translation blockers – H4 neuroglioma cells, luminescence, confirmation (AID 1988); assay type: functional, cell-based
[7] = target: T5, Microphthalmia-associated transcription factor (Homo sapiens, UniProt O75030); test: reducers of TRPM1 reporter luminescence, concentration series – cell-based, SK-MEL-5, cherry-picked, set 3, MITF inhibitor project, dose response (AID 493073); assay type: functional;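 also: SK-MEL-5 melanoma cells with luciferase driven by the MITF target TRPM1 promoter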
T5 sequence (O75030 whole entry): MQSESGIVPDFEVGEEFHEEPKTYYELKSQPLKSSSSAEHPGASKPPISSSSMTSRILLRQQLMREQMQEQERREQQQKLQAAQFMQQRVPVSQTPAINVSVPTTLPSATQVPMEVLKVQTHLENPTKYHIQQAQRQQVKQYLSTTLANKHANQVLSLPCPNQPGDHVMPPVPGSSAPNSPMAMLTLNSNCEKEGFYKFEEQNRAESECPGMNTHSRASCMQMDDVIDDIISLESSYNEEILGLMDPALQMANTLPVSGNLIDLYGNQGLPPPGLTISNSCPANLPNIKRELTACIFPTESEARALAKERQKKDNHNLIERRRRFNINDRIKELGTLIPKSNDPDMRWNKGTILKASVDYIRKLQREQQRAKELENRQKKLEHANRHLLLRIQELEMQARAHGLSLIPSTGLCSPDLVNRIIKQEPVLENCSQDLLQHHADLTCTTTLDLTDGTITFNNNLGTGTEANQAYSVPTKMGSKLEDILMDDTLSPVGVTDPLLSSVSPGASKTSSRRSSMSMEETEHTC

[8] = HEK-293T cell viability reduction – luminescence, B-cell screen hits, cytotoxicity control for BCR NF-kB inhibitor project, dose response (AID 489021); assay type: functional, cell-based;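 also: HEK-293T cells carrying an NF-kB luciferase reporter; cells exposed to compound for about 14 hours before viability readout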
[9] = target: T6, High affinity choline transporter 1 (Homo sapiens, UniProt Q9GZV3); test: human choline transporter blockers, potency – cell-based, 5-point CRC, membrane potential dye, dose response (AID 504840); assay type: functional
T6 sequence (Q9GZV3 whole entry): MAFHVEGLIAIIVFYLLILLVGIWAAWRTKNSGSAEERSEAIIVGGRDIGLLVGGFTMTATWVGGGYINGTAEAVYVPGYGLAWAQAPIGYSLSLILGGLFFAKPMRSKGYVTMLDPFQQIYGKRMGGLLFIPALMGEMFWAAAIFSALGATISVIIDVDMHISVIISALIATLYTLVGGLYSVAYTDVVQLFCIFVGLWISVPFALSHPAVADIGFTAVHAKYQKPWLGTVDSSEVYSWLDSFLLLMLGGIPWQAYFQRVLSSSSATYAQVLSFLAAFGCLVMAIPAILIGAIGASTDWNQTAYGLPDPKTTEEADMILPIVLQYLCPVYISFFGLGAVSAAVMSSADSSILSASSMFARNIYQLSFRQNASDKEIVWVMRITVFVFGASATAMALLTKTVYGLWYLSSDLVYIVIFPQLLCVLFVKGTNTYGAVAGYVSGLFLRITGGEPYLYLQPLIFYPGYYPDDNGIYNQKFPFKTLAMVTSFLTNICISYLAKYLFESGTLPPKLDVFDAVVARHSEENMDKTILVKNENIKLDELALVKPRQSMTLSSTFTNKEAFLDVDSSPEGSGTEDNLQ

[10] = viability of uninfected HEp-2 cells – cell-based, HTS, cytotoxicity control for RSV inhibitor project, dose response (AID 2410); assay type: functional; conditions: human respiratory syncytial virus
[11] = Trypanosoma cruzi growth suppression in host cells – NIH3T3 host cells, beta-gal luminescence, confirmation (AID 2044); assay type: functional, cell-based;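 also: intracellular parasites grown in NIH/3T3 mouse fibroblasts as host cells; luminescent beta-galactosidase reporter signal from transgenic T. cruzi replicating inside host cells; inhibitors lower the luminescence signal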
[12] = microbe, parasite or virus in culture; assay type: functional; conditions: Mycobacterium tuberculosis
[13] = NIH3T3 cell viability loss – ATP luminescence, mouse fibroblasts, counter-screen, dose response (AID 2010); assay type: functional, cell-based;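 also: cells exposed to compound for about 90 hours before reading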
Nonstructural protein 1 = Nonstructural protein 1 (Influenza A virus, UniProt Q194T2); assay type: functional, Influenza A virus (A/California/07/2009(H1N1))
[14] = target: T7, Heat shock factor protein 1 (Mus musculus, UniProt P38532); test: enhancement of HSF1-driven luciferase signal – cell-based, NIH3T3, luminescence, dose retest, confirmation (AID 435004); assay type: functional;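 also: stress induced by proteasome inhibitor MG132 added 30 min after compound; luciferase reporter driven by HSF1 response element in NIH3T3 cells; actives raise luminescence as potentiators of the MG132 stress response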
T7 sequence (P38532 whole entry): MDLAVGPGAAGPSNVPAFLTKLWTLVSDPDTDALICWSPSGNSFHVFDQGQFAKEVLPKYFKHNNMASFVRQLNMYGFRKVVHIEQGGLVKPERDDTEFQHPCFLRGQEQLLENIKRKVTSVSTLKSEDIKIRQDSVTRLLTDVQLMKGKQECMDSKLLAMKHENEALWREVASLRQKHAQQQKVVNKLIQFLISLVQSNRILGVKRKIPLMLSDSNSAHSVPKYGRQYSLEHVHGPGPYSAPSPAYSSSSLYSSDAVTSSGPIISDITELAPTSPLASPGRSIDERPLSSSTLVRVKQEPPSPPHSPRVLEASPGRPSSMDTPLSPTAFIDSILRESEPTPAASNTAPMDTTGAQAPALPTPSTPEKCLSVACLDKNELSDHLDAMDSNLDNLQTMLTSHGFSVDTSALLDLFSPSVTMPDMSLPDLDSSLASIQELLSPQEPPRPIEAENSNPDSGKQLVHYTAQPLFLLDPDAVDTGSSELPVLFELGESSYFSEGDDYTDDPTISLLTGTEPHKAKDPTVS

Beta-galactosidase, sequence (Q8VNN2 whole entry): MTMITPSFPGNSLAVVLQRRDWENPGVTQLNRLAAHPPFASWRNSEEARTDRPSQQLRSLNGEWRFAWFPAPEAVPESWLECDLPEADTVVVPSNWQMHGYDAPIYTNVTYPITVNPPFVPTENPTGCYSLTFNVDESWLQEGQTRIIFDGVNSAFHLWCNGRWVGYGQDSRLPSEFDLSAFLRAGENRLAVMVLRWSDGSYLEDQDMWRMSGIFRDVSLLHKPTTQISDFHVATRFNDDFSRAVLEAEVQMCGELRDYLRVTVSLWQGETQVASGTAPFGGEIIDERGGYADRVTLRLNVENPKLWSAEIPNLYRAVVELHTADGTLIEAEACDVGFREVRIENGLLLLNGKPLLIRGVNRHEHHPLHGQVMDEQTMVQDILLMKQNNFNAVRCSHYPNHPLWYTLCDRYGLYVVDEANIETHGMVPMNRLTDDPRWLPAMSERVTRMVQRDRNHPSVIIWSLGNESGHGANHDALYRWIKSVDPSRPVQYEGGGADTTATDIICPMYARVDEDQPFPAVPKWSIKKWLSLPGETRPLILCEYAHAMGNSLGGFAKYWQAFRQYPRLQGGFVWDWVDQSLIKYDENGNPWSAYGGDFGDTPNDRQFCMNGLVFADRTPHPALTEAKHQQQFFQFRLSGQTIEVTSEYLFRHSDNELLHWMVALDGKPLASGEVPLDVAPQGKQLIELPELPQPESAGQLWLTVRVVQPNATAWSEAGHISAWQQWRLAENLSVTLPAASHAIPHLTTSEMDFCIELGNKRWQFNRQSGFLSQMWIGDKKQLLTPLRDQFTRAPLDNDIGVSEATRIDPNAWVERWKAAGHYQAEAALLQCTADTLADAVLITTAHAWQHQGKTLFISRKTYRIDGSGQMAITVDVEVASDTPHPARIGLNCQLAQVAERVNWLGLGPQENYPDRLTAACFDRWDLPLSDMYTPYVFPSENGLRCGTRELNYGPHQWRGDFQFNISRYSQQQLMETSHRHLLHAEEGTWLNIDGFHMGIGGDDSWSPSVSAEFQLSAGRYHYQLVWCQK
Nonstructural protein 1, sequence (Q194T2 whole entry): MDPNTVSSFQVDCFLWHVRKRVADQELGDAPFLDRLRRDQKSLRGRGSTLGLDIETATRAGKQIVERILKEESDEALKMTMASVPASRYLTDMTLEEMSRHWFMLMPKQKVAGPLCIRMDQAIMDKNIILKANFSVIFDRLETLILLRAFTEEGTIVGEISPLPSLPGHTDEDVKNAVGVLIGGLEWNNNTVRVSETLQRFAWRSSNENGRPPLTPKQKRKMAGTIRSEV

Compound: CC(C)OC(=O)CN1C(=O)C(=O)c2ccccc21
- EC50 (Beta-galactosidase): > 40 µM (inactive)
- IC50 [1]: 5.32 µM (active)
- AC50 [2]: 14.3 µM (active)
- EC50 (Protein RecA): 8.52 µM (active)

Compound: CN(C)C(CNC(=O)c1oc2ccccc2c1CSc1nc[nH]n1)c1ccco1 (stereo unspecified)
- EC50 [3]: 8.41 µM (active)

Compound: O=C(CCCN1C(=O)S/C(=C\c2ccccc2)C1=O)NNC(=O)c1ccccc1O
- EC50 [4]: < 0.1 µM (active)
- EC50 [5]: 15.2 µM (active)
- EC50 [6]: 0.157 µM (active)
- AC50 [7]: 33.9 µM (active)
- IC50 [8]: > 80 µM (inactive)

Compound: NS(=O)(=O)c1ccc(CCNCc2ccccc2OCc2ccc(Cl)cc2)cc1
- EC50 [3]: 6.68 µM (active)
- IC50 [9]: 11.2 µM (active)

Compound: Cc1ccc(NC(=O)CNc2ccccc2CN(C)C2CCCCC2)cc1
- EC50 [3]: 2.99 µM (active)

Compound: C=CCSc1nc2c(c(=O)[nH]c(=O)n2C)n1C/C=C(/C)Cl
- CC50 [10]: 37.2 µM (active)
- EC50 [3]: 2.37 µM (active)

Compound: CCN(CC)S(=O)(=O)c1ccc2oc(SCC(=O)Nc3cc(C)on3)nc2c1
- EC50 (Beta-galactosidase): > 40 µM (inactive)
- EC50 [11]: > 30 µM (not active)
- CC50 [12]: 11.6 µM (active)
- IC50 [1]: > 40 µM (not active)
- EC50 [13]: 5.9 µM (active)

Compound: CCc1cc2c(=O)[nH]c(-c3ccccn3)nc2s1
- EC50 (Beta-galactosidase): > 40 µM (inactive)
- IC50 [1]: 2.91 µM (active)
- IC50 (Nonstructural protein 1): 14.3 µM (active)
- EC50 [14]: 12.9 µM (active)

Compound: Cn1cccc1/C=C(/C#N)C(N)=S
- EC50 (Beta-galactosidase): > 40 µM (inactive)
- IC50 [1]: > 40 µM (not active)

From ChEMBL document CHEMBL1201862, “PubChem BioAssay data set” (2004)
